From US20130137081A1, “METHOD OF CRYOPRESERVING SELECTED SPERM CELLS” (XY,LLC, priority 1999, published 2013)

Columns and labels:
[1] = tested on: flow-sorted bull sperm; experiment: Post-thaw motility of bulk-sorted frozen sperm: Hoechst 33342 dye concentration and laser intensity (Example 3); assay type: cell-based, bovine; settings: for post-thaw motility: main effect mean
Method: Straws were thawed in a 37° C. water bath for 30 sec. Blind estimates of progressive motility were made after incubating samples at 37° C. for 0, 1 and 2 h post-thawing. Each of two observers estimated progressive sperm motility from each of two straws of semen. These four blind estimates for each experimental unit represent subsampling.
Sperm of 6 bulls were collected and prepared as described in Example 1A.
a) Experimental Design. • One ejaculate (2 bulls) and 2 ejaculates on different days (4 bulls) were used in a 2 by 2 design plus control.
b) Staining and Sorting. • Staining, preparation for sorting and sorting sperm were achieved as described in Example 2 except that the Hoechst 33342 dye was added to sperm suspensions at a final concentration of 149 μM or 224 μM; and sperm were bulked-sorted with the laser operating at 100 mW or 150 mW of incident power. Bulk-sorted sperm were collected into 50-ml plastic tubes as described in Example 2. Four tubes containing approximately 15×10^6 total sperm/tube were collected over 1 h for each bull. The sorted sperm were incubated for 1 h at 22° C. to simulate a longer sorting time.
c) Preparation for Freezing. • Following incubation, the sperm were cooled as in Example 2. The sperm were then concentrated by centrifugation at 5° C. at 850×g for 20 minutes. After removing the supernatant, 150 μl of Tris-A fraction extender was added to each 150-μl sperm pellet at 5° C. All of the sperm pellets were suspended by gentle repeated aspiration and the sperm of individual bulls were pooled. Tris B-fraction extender was added stepwise as described in Example 2. A non-stained, non-sorted control for each bull was prepared at 20×10^6 sperm/ml in Tris extender containing 6% glycerol and cooled to 5° C. while the bulk-sorted sperm were being prepared.
d) Equilibration and Freezing. • The control and sorted sperm were packaged into 0.25-ml polyvinylchloride straws as described in Example 2, equilibrated at 5° C. for 3 h and then frozen conventionally.
Straws were thawed and evaluated as described in Example 2.

[2] = tested on: bull sperm; experiment: Post-thaw progressive motility of sperm frozen in WET extender with SDS (Example 5A); assay type: cell-based, bovine; settings: mean of 6 bulls
Method: Sperm of 6 bulls were collected and prepared as described in Example 1A. Sperm from each of 6 bulls were extended to 20×10^6/ml in 20% whole egg Tris (“WET”) extender containing 0, 0.03, 0.06, 0.09, or 0.12 percent SDS, packaged into straws and frozen. WET extender was prepared using 3.028 g of Tris[hydroxymethyl]aminomethane, 1.78 g of citric acid monohydrate, and 1.25 g of fructose per 100 ml of double distilled water, to which 20% whole egg (vol/vol) was added. The WET extender was prepared at a pH of about 7.0 and contained a final glycerol concentration of about 6% (vol/vol). The WET extender also contained 1000 IU of penicillin “G” sodium and 100 μg of streptomycin sulfate/ml.

SMILES | effect of dye concentration on post-thaw sperm motility ([1]; 149 μM vs 224 μM) | post-thaw motility ([1]; Hoechst 33342 149 μM, 0 h incubation at 37° C.) | post-thaw motility ([1]; Hoechst 33342 149 μM, 1 h incubation at 37° C.) | post-thaw motility ([1]; Hoechst 33342 149 μM, 2 h incubation at 37° C.) | post-thaw motility ([1]; Hoechst 33342 224 μM, 0 h incubation at 37° C.) | post-thaw motility ([1]; Hoechst 33342 224 μM, 1 h incubation at 37° C.) | post-thaw motility ([1]; Hoechst 33342 224 μM, 2 h incubation at 37° C.) | progressive motile sperm approximately 10 minutes post-thaw ([2]; WET extender containing 0.03 percent SDS) | progressive motile sperm approximately 10 minutes post-thaw ([2]; WET extender containing 0.06 percent SDS) | progressive motile sperm approximately 10 minutes post-thaw ([2]; WET extender containing 0.09 percent SDS) | progressive motile sperm approximately 10 minutes post-thaw ([2]; WET extender containing 0.12 percent SDS)
CCOc1ccc(-c2nc3ccc(-c4nc5ccc(N6CCN(C)CC6)cc5[nH]4)cc3[nH]2)cc1 [Hoechst 33342, bis-Benzimide H-33342] | no effect | 41% | 39% | 30% | 42% | 39% | 30% |  |  |  | 
CCCCCCCCCCCCOS(=O)(=O)[O-].[Na+] [SDS, sodium dodecyl sulfate] |  |  |  |  |  |  |  | 51% | 50% | 51% | 48%
